Measurements taken from patent publication US20150099800A1, “NOVEL LIPASE INHIBITORS, REPORTER SUBSTRATES AND USES THEREOF” (Northeastern University, priority 2012, published 2015).
Read-outs that look alike come from different tables or passages of the source. One block for each molecule: values may come before it.

Columns and labels:
[1] = test system: pancreatic and extrapancreatic fat necrosis; settings: literature, cited from earlier work
[2] = test system: FAAH; settings: cited from earlier work
[3] = target: T1, hDAGLα (Homo sapiens, UniProt Q9Y4D2); experiment: biochemical; settings: read-out: hDAGLα inhibition at 10 μM TLC (with Triton X-100) (%), 10 μM; 0.05% Triton X-100 present
T1 sequence (Q9Y4D2 1-1042): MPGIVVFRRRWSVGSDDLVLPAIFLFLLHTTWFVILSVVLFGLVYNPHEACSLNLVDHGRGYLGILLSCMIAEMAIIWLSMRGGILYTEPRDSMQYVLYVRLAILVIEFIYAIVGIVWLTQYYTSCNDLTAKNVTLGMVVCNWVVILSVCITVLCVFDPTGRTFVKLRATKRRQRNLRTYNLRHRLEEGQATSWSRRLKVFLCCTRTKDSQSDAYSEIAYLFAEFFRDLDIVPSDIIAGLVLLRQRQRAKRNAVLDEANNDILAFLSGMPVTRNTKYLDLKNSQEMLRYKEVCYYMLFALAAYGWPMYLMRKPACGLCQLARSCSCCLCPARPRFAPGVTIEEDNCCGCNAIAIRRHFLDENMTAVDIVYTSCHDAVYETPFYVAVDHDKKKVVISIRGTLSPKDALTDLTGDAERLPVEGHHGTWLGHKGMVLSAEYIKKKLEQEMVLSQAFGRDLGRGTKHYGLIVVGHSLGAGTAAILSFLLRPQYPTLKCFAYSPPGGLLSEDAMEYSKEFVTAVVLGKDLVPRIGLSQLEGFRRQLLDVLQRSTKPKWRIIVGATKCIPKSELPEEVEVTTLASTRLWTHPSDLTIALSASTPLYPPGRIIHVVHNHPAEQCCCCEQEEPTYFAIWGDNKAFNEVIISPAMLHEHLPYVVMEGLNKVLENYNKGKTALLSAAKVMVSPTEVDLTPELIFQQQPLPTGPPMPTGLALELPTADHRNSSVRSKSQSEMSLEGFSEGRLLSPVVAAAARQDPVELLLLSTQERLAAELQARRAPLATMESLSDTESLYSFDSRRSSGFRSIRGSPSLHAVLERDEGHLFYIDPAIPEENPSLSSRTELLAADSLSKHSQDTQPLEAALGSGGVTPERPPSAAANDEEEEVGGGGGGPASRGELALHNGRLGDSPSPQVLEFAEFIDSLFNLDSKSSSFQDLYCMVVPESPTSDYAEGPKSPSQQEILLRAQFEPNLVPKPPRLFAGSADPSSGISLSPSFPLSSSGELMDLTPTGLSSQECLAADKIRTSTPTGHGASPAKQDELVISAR

[4] = test system: cannabinoid receptors; settings: cited from earlier work
[5] = target: T2, MAGL (Homo sapiens, UniProt Q99685); settings: cited from earlier work
T2 sequence (Q99685 1-303): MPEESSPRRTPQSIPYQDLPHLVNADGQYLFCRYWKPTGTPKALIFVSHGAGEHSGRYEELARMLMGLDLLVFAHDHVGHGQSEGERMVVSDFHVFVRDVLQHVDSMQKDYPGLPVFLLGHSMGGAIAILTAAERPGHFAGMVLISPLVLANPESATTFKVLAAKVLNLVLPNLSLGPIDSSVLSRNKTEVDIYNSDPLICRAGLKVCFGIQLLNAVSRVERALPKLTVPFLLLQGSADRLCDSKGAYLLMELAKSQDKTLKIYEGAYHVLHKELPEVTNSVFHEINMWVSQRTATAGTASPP

[6] = target: T1, hDAGLα
[7] = target: T1, hDAGLα; remark: listed apart in the source
[8] = test system: DAGL; settings: cited from earlier work
[9] = intraperitoneal (IP) injections
[10] = 10 μM, 0.05% Triton X-100 present

Structure (SMILES): CCCCCCCCCCC[C@@H](C[C@@H]1OC(=O)[C@H]1CCCCCC)OC(=O)[C@H](CC(C)C)NC=O [Compound 3, tetrahydrolipstatin]
effect on concentration of free fatty acid in the blood [1, 9]: no effect
lowering of lipase activity in the blood [1, 9]: small effect
prevention of pancreatic and extrapancreatic fat necrosis ([1]; rodents): not effective
inhibition of FAAH activity reported in the literature ([2]; literature): poor inhibitors
inhibition at 10 µM [3]: 100%
binding to the cannabinoid receptors, previous reports ([4]; literature): did not bind
inhibition of MAGL activity reported in the literature ([5]; literature): poor inhibitors
inhibition of hDAGLα at 10 μM ([6]; 10 μM): complete inhibition

hDAGLα inhibition at 10 μM (0.05% Triton X-100) (%), FRET ([7]; 10 μM): 98%
hDAGLα inhibition at 10 μM detergent free (%), FRET ([7]; 10 μM, detergent free): 90%
hDAGLα inhibition at 10 μM TLC (with Triton X-100) (%) [6, 10]: (78^A) %
Structure (SMILES): CCCCCCCCCCCC(CC1OC(=O)C1CCCCCC)OC(=O)C(NC=O)C(C)CC (stereo not shown) [Compound 6]

hDAGLα inhibition at 10 μM (0.05% Triton X-100) (%), FRET ([7]; 10 μM): 98%
hDAGLα inhibition at 10 μM detergent free (%), FRET ([7]; 10 μM, detergent free): 90%
hDAGLα inhibition at 10 μM TLC (with Triton X-100) (%) [6, 10]: (86^A) %
Structure (SMILES): CCCCCCCCCCC[C@@H](C[C@@H]1OC(=O)[C@H]1CCCCCC)OC(=O)[C@H](NC=O)[C@@H](C)CC [Compound 7]

Structure (SMILES): O=C(Oc1ccc([N+](=O)[O-])cc1)N1CCC(C(O)(c2ccc3c(c2)OCO3)c2ccc3c(c2)OCO3)CC1 [JZL184]
inhibition of FAAH activity reported in the literature [2]: poor inhibitors
effect on DAGL activity reported in the literature [8]: poor inhibitors
hDAGLα inhibition at 10 μM detergent free (%), FRET [7]: 59, 44° %
hDAGLα inhibition at 10 μM detergent free (%), FRET, marker ° [7]: 59, 44° %
binding to the cannabinoid receptors, previous reports [4]: did not bind
inhibition of MAGL activity reported in the literature [5]: poor inhibitors
hDAGLα inhibition at 10 μM TLC (with Triton X-100) (%) [6]: (37^B) %
inhibition of hDAGLα in radio-TLC assays [6]: poor inhibitors
